# Data published in article PMC8683663 (International Journal of Pharmaceutics: X, 2021).
# Read-outs that look alike come from different tables or passages of the source.
# Experiments:
# [1] = 10 mg/kg encequidar, oral; ref Smolinski et al., 2021; cited from earlier work
# [2] = mdr1a(−/−) (P-gp) knockout rats; ref Al-Ali et al., 2018a; cited from earlier work
# Caco-2 cell monolayers [3] = assay: Bidirectional etoposide permeability across Caco-2 cell monolayers; type: in vitro ADME; conditions: in the presence of more than 79 nM zosuquidar; Caco-2
# [4] = as above; type: in vitro ADME; conditions: human, Caco-2, pH 7.4
# [5] = ref Al-Ali et al., cited from earlier work; for oral bioavailability of etoposide: 2020
# [6] = Etoposide solubility in ethanol-water mixtures; type: physicochemical; conditions: 22 °C, thermodynamic from solid
# [7] = Pharmacokinetic dose escalation study in rats; type: in vivo, Sprague Dawley rats; conditions: for bioavailability: Etoposide Bioavailability; for Zosuquidar tmax: median [Q1;Q3]
# [8] = for precipitation upon dilution in rSIF (visual): 1:1 in rSIF; for initial zosuquidar solubility: supernatant, 37 °C
# [9] = Zosuquidar recovery in the compartments of the Caco-2 Transwell system; type: in vitro ADME; conditions: for zosuquidar left in solution / zosuquidar recovery: 120 min, mean ± SEM, n = 24; for zosuquidar left in solution: % of added
# P-gp = assay: In vitro-in vivo correlation of P-gp inhibition; conditions: 180 μM intestinal concentration in vivo vs. 5–10 nM in Caco-2
# [10] = weak base; ref Drugbank, 2021; cited from earlier work
# [11] = 20 mg/kg zosuquidar IV; ref Anderson et al., 2006; cited from earlier work
# Caco-2 cell monolayers [12] = assay: Lucifer yellow permeability; type: in vitro ADME
# [13] = etoposide 5 mg/kg IV, by an oral dose of 20 mg/kg zosuquidar (group B vs A)
# [14] = group B: zosuquidar 20 mg/kg oral + etoposide 5 mg/kg IV, mean ± SEM, n = 6
# [15] = group F: zosuquidar 0.63 mg/kg oral + etoposide 20 mg/kg oral, mean ± SEM, n = 6
# [16] = group G: zosuquidar 2.0 mg/kg oral + etoposide 20 mg/kg oral, mean ± SEM, n = 6
# [17] = group H: zosuquidar 6.3 mg/kg oral + etoposide 20 mg/kg oral, mean ± SEM, n = 6
# [18] = group I: zosuquidar 20 mg/kg oral + etoposide 20 mg/kg oral, mean ± SEM, n = 6
# [19] = group J: zosuquidar 63 mg/kg oral + etoposide 20 mg/kg oral, mean ± SEM, n = 6
compound,measurement,setting,value
COc1cc2c(cc1OC)CN(CCc1ccc(-n3nnc(-c4cc(OC)c(OC)cc4NC(=O)c4cc(=O)c5ccccc5o4)n3)cc1)CC2 [encequidar],encequidar Cmax,[1],7.1 ng/mL
same,encequidar bioavailability,[1],6.25%
COc1cc([C@@H]2c3cc4c(cc3[C@@H](O[C@@H]3O[C@@H]5CO[C@@H](C)O[C@H]5[C@H](O)[C@H]3O)[C@H]3COC(=O)[C@H]23)OCO4)cc(OC)c1O [etoposide],oral etoposide bioavailability,[2],92%
same,decrease of etoposide B-A permeability,Caco-2 cell monolayers [3],5 fold
same,increase of etoposide A-B permeability,Caco-2 cell monolayers [3],4 fold
same,"recovery at 120 min, 50 µM",[4],95 to 117%
same,oral bioavailability of etoposide,[5]; 20 mg/kg etoposide oral + 20 mg/kg oral zosuquidar,34.5%
same,absolute etoposide bioavailability,"[5]; wild-type rats, 2018a",27 ± 5%
same,oral bioavailability of etoposide,[5]; without zosuquidar,4.0%
same,solubility at 24 h,"[6]; absolute ethanol, organic solvent or mixture",891 ± 8 µg/mL
same,solubility at 24 h,[6]; ethanol-water mixture,9230 ± 420 µg/mL
same,solubility at 24 h,[6]; water,92.4 ± 3.4 µg/mL
same,increase of etoposide AUC0-6h,[7]; [13],34%
same,increase of etoposide t½,[7]; [13],37%
same,Etoposide Bioavailability,"[7]; group D: etoposide 20 mg/kg oral, no zosuquidar, mean ± SEM, n = 6",5%
same,AUC(0-t),"[7]; male, Sprague Dawley, rat, plasma, po, 20 mg/kg, Etoposide AUC0-6h, group I: etoposide 20 mg/kg oral + zosuquidar 20 mg/kg oral, mean ± SEM, n = 6",3530 ± 460 ng·h/mL
same,bioavailability,"[7]; male, Sprague Dawley, rat, plasma, po, 20 mg/kg, group D: etoposide 20 mg/kg oral, no zosuquidar, mean ± SEM, n = 6",5.5 ± 0.9%
same,bioavailability,"[7]; male, Sprague Dawley, rat, plasma, po, 20 mg/kg, group I: etoposide 20 mg/kg oral + zosuquidar 20 mg/kg oral, mean ± SEM, n = 6",20.5 ± 2.7%
same,precipitation upon dilution in rSIF (visual),"[8]; etoposide, any formulation",did not precipitate
O[C@@H](COc1cccc2ncccc12)CN1CCN([C@@H]2c3ccccc3[C@@H]3[C@H](c4ccccc42)C3(F)F)CC1 [zosuquidar],reduction of free zosuquidar concentration in the receiver compartments,"[9]; apical and basolateral, after 30 min, data not shown",60–72%
same,zosuquidar left in solution,[9]; apical compartment,1.55 ± 0.06%
same,zosuquidar left in solution,[9]; basolateral compartment,7.01 ± 0.37%
same,zosuquidar recovery,[9]; in the Caco-2 monolayer,58.7 ± 5.0%
same,zosuquidar recovery,[9]; in the cell culture plate,31.8 ± 11.3%
same,in vitro-in vivo discrepancy of zosuquidar P-gp inhibition,P-gp,at least four orders of magnitude
same,zosuquidar plasma concentration,[7]; 2 h after a 5 mg/kg IV bolus,0.13 µg/mL
same,Zosuquidar AUC0-6h,[7]; [14],94.2 ± 12.4 ng·h/mL
same,Zosuquidar Bioavailability,[7]; [14],2.81±0.37%
same,Zosuquidar Cmax,[7]; [14],23.7 ± 3.6 ng/mL
same,Zosuquidar t½ terminal,[7]; [14],2.88 ± 0.167 h
same,Zosuquidar tmax,"[7]; group B: zosuquidar 20 mg/kg oral + etoposide 5 mg/kg IV, n = 6",120[60;135] min
same,Zosuquidar AUC0-6h,"[7]; group C: zosuquidar 5.0 mg/kg IV, mean ± SEM, n = 3",830 ± 87 ng·h/mL
same,Zosuquidar CL,"[7]; group C: zosuquidar 5.0 mg/kg IV, n = 3",102 ± 12 mL/min/kg
same,Zosuquidar t½ terminal,"[7]; group C: zosuquidar 5.0 mg/kg IV, two-compartment model, mean ± SEM, n = 3",2.33 ± 0.4 h
same,Zosuquidar AUC0-6h,[7]; [15],4.45 ± 0.86 ng·h/mL
same,Zosuquidar Bioavailability,[7]; [15],4.21±0.81%
same,Zosuquidar Cmax,[7]; [15],1.34 ± 0.28 ng/mL
same,Zosuquidar t½ terminal,[7]; [15],1.37 ± 0.0917 h
same,Zosuquidar tmax,"[7]; group F: zosuquidar 0.63 mg/kg oral + etoposide 20 mg/kg oral, n = 6",120[101;120] min
same,Zosuquidar AUC0-6h,[7]; [16],8.67 ± 0.77 ng·h/mL
same,Zosuquidar Bioavailability,[7]; [16],2.58±0.23%
same,Zosuquidar Cmax,[7]; [16],2.10 ± 0.27 ng/mL
same,Zosuquidar t½ terminal,[7]; [16],3.62 ± 0.45 h
same,Zosuquidar tmax,"[7]; group G: zosuquidar 2.0 mg/kg oral + etoposide 20 mg/kg oral, n = 6",120[45;135] min
same,Zosuquidar AUC0-6h,[7]; [17],43.6 ± 5.4 ng·h/mL
same,Zosuquidar Bioavailability,[7]; [17],4.12±0.51%
same,Zosuquidar Cmax,[7]; [17],10.9 ± 1.2 ng/mL
same,Zosuquidar t½ terminal,[7]; [17],2.68 ± 0.217 h
same,Zosuquidar tmax,"[7]; group H: zosuquidar 6.3 mg/kg oral + etoposide 20 mg/kg oral, n = 6",90[45;120] min
same,Zosuquidar AUC0-6h,[7]; [18],118 ± 21 ng·h/mL
same,Zosuquidar Bioavailability,[7]; [18],3.52±0.62%
same,Zosuquidar Cmax,[7]; [18],31.3 ± 3.2 ng/mL
same,Zosuquidar t½ terminal,[7]; [18],3.23 ± 0.383 h
same,Zosuquidar AUC0-6h,[7]; [19],436 ± 91 ng·h/mL
same,Zosuquidar Bioavailability,[7]; [19],4.12±0.86%
same,Zosuquidar Cmax,[7]; [19],105 ± 21 ng/mL
same,Zosuquidar t½ terminal,[7]; [19],3.97 ± 0.233 h
same,Oral zosuquidar bioavailability,"[7]; range over the oral zosuquidar doses, Sprague Dawley rats",2.6–4.2%
same,predicted pKa,[10],7.6
same,precipitation upon dilution in rSIF (visual),"[8]; 2.0 and 6.3 mg/mL zosuquidar (groups B, I, J)",precipitation was observed
same,initial zosuquidar solubility,[8]; formulation B (2.0 mg/mL zosuquidar) diluted 1:1 in rSIF,450 µg/mL
same,dose strength being in solution,[8]; formulation B diluted 1:1 in rSIF,44%
same,initial zosuquidar solubility,[8]; formulation I (2.0 mg/mL zosuquidar) diluted 1:1 in rSIF,520 µg/mL
same,dose strength being in solution,[8]; formulation I diluted 1:1 in rSIF,52%
same,initial zosuquidar solubility,[8]; formulation J (6.3 mg/mL zosuquidar) diluted 1:1 in rSIF,470 µg/mL
same,dose strength being in solution,[8]; formulation J diluted 1:1 in rSIF,15%
same,precipitation upon dilution in rSIF (visual),[8]; lower zosuquidar concentrations,remained clear
same,tolerability of IV zosuquidar,[11],no reported issues
lucifer yellow,lucifer yellow Papp,"Caco-2 cell monolayers [12]; 100 μM lucifer yellow, Caco-2, not affected by zosuquidar",below 1.1 × 10^−6 cm/s
same,lucifer yellow recovery,Caco-2 cell monolayers [12]; Caco-2 permeability experiments,82–110%
